The assay concerns the target T1, Renilla luciferase 8 (RLuc8) (Renilla reniformis, UniProt P27652, A55T/C124A/S130A/K136R/A143M/M185V/M253L/S287L).
T1 construct: RLuc8 in pcDNA3.1(+), stably expressed in MDA-MB231 cells
T1 sequence (P27652 1-311 A55T/C124A/S130A/K136R/A143M/M185V/M253L/S287L): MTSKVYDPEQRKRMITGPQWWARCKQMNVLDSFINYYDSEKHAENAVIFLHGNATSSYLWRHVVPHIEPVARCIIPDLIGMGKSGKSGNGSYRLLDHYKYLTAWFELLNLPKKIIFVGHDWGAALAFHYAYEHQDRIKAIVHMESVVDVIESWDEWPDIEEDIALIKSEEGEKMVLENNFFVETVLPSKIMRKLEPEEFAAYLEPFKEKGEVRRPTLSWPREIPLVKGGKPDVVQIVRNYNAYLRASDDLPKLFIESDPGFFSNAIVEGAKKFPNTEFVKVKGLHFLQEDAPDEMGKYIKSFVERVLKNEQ
Put plainly: bioluminescence imaging of MDA-MB231 cells expressing the luciferase. The conditions noted are these: stable cells. The format is cell-based.

Regarding `Oc1ccc(Cc2nc3c(Cc4ccccc4)nc(-c4ccc(O)cc4)cn3c2O)cc1` [nCTZ], the “bioluminescence imaging of MDA-MB231 cells expressing the luciferase” value is “exhibited the brightest signal when reacted with nCTZ”.
